According to US20240158383A1, “RIBONUCLEOTIDE REDUCTASE (RNR) INHIBITORS AND USES THEREOF” (Boundless Bio, Inc., priority 2021, published 2024):

Experiments:
RNR (RNR1:RNR2) = RNR (RNR1:RNR2) (Homo sapiens (Human), UniProt P23921+P31350); assay: RNR enzyme activity, rapid-fire mass spectrometry (RFMS) assay; type: biochemical; details: [RNR] 50 nM, 1:1 RNR1:RNR2, [CDP] 5 μM, [ATP] 1 mM, 37° C., 45 min
Protocol: A rapid-fire mass spectrometry (RFMS) assay was used to assess RNR enzyme activity using a 384 well plate and a robotic platform.
The plate layout included two validated reference compounds (Triapine (3-AP) and Hydroxyurea (HU)): • A dose response in duplicate; top concentration: 5 μM (3-AP) and 250 μM (HU), semi-log • dilutions. • Spike wells in triplicate randomly spotted at four concentrations: • 250 μM, 100 μM, 30 μM and 2 μM for HU • 5 μM, 2 μM, 0.6 μM and 0.04 μM for 3-AP
First, the multidrop pipes were saturated for 30 minutes with enzymatic solution. Then 30 μL of Stop solution was distributed in column 24. Next, 15 μL of enzyme was distributed in column 1 to 24. Next, a pre-incubation step of 15 minutes at room temperature occurred, followed by distribution of 15 μL of substrate solution (column 1 to 24). Next, the plate was incubated for 45 minutes at 37° C. 30 μL of Stop solution was distributed to columns 1 to 23.
The final parameters for the enzyme reactions were: • Incubation: 37° C., 45 min • [CDP]: 5 μM; [ATP]: 1 mM; [NADPH]: No • [RNR]final: 50 nM with 1:1 (RNR1:RNR2) ratio • Final volume: 30 μL • Stop solution: 6% HCOOH containing 2 μM of 15
The compounds were screened at concentrations from 10 nM to 30 μM.

[1] = system: pCHK1 (S345) in Colo320 DM cells; assay: CHK1 cellular activity (phospho-CHK1 AlphaLisa); type: cell-based, human; details: Homo sapiens, COLO 320DM, 16 h, compound overnight (approximately 16 hours)
Protocol: Phospho-CHK1 cellular activity was measured as a marker of replication stress which is a consequence of RNR inhibition.
Colo320 DM cells (ATCC #CCL-220, derived from human colorectal adenocarcinoma, Dukes' type C) were seeded on a 96-well cell culture treated assay plate at a density of 50,000 cells/well in 200 μL of RPMI-1640 media supplemented with 10% Fetal Bovine Serum and incubated at 37 degrees Celsius overnight. The following day, test compound dilutions were added directly to the plated cells by a Tecan digital dispenser to a final DMSO concentration of <0.5% and incubated at 37 degrees Celsius overnight (approximately 16 hours). The following day all culture media is removed from the cells. 75 μL of 1× AlphaLisa lysis buffer is added to each well and plates are agitated on a shaker for 30 minutes at room temperature. The lysis of cells and detection of pCHK1 (S345) are performed with reagents contained within the AlphaLisa Sure Fire assay kit (Perkin Elmer #ALSU-PCHK1-A) according to the manufacturer's instructions. 10 μL of each lysate was then transferred to a white, 384-well assay plate (Perkin Elmer #6008280). 5 μL of Acceptor mix was then added to each well of lysate in the white, 384-well assay plate and incubated in the dark at room temperature for 60 minutes. 5 μL of Donor mix was then added to each well of the white, 384-well assay plate in subdued light and incubated at room temperature for 60 minutes. Plates are read on an Alpha Technology-compatible plate reader using standard AlphaLisa settings.

RNR (RNR1:RNR2), sequence (P23921 whole entry): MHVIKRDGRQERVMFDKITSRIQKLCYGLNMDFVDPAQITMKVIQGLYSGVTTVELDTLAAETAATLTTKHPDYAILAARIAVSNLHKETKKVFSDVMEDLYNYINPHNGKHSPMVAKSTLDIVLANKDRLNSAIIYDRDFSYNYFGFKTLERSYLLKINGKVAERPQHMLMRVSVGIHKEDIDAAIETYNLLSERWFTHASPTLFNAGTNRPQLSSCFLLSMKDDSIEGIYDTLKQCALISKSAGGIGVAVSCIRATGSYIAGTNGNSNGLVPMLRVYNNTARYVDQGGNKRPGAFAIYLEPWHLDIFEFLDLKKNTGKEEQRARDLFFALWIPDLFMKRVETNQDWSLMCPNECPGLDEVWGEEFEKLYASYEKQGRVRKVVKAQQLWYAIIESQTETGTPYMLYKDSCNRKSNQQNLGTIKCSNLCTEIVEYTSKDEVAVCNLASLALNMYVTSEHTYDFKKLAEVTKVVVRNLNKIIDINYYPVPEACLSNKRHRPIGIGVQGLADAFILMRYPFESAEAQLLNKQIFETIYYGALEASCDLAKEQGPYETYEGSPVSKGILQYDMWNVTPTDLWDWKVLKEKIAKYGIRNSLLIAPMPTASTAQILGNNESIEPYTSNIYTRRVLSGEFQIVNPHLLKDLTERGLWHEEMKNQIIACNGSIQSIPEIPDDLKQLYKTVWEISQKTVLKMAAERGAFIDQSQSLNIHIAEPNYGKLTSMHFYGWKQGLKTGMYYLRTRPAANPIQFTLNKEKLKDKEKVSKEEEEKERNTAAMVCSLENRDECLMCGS
RNR (RNR1:RNR2), sequence (P31350 whole entry): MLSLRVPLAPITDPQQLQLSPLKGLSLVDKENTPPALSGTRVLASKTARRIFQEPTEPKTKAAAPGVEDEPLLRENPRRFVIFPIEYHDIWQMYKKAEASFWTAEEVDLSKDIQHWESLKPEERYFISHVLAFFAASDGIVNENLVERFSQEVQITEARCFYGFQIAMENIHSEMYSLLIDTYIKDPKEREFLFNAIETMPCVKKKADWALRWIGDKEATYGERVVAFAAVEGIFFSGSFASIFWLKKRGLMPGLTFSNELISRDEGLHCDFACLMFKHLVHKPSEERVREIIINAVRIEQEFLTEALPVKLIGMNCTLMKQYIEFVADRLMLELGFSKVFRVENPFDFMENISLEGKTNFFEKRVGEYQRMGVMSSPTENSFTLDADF

IC50 (RNR (RNR1:RNR2))	IC50 [1]	SMILES
0.1 to 1 µM	30 to 50 µM	Cc1ccc(F)c([C@@H](C)[C@H](NS(=O)(=O)c2ccc(Cl)cc2)c2nn[nH]n2)c1C [Example 33, 4-chloro-N-((1S,2R)-2-(6-fluoro-2,3-dimethylphenyl)-1-(2H-tetrazol-5-yl)propyl)benzenesulfonamide]
0.1 to 1 µM	30 to 50 µM	Cc1ccc(F)c([C@@H](C)[C@H](NS(=O)(=O)c2ccc(Cl)cc2C(F)F)c2nn[nH]n2)c1C [Example 50, 4-chloro-2-(difluoromethyl)-N-((1S,2R)-2-(6-fluoro-2,3-dimethylphenyl)-1-(2H-tetrazol-5-yl)propyl)benzenesulfonamide]
1 to 5 µM	50 to 100 µM	Cc1ccc(F)c([C@@H](C)[C@H](NS(=O)(=O)c2cn(C)nc2C)c2nn[nH]n2)c1C [Example 43]
0.1 to 1 µM	50 to 100 µM	Cc1ccc(F)c([C@@H](C)[C@H](NS(=O)(=O)c2ccc(C#N)cc2OC(F)F)c2nn[nH]n2)c1C (racemic) [Example 69, rac-4-cyano-2-(difluoromethxoy)-N-((1R,2S)-2-(6-fluoro-2,3-dimethylphenyl)-1-(2H-tetrazol-5-yl)propyl)benzenesulfonamide]
≤ 0.1 µM	50 to 100 µM	Cc1ccc(F)c([C@@H](C)[C@H](NS(=O)(=O)c2ccc(Cl)cc2CC(=O)O)c2nn[nH]n2)c1C [Example 18, 2-(5-chloro-2-(N-((1S,2R)-2-(6-fluoro-2,3-dimethylphenyl)-1-(2H-tetrazol-5-yl)propyl)sulfamoyl)phenyl)acetic acid]
5 to 30 µM	50 to 100 µM	Cc1ccc(F)c([C@@H](C)[C@H](NS(=O)(=O)c2cc(Cl)ccc2Cl)c2nn[nH]n2)c1C [Example 45]
0.1 to 1 µM	30 to 50 µM	Cc1ccc(F)c([C@@H](C)[C@H](NS(=O)(=O)c2ccc(Cl)cc2N2CCOCC2)c2nn[nH]n2)c1C [Example 78, 4-chloro-N-((1S,2R)-2-(6-fluoro-2,3-dimethylphenyl)-1-(2H-tetrazol-5-yl)propyl)-2-morpholinobenzenesulfonamide]
0.1 to 1 µM	50 to 100 µM	Cc1ccc(F)c([C@@H](C)[C@H](NS(=O)(=O)c2ccc(Cl)cc2O)c2nn[nH]n2)c1C [Example 41, 4-chloro-N-((1S,2R)-2-(6-fluoro-2,3-dimethylphenyl)-1-(2H-tetrazol-5-yl)propyl)-2-hydroxybenzenesulfonamide]
5 to 30 µM	50 to 100 µM	COc1cc(Cl)ccc1S(=O)(=O)N[C@H](c1nnn(C)n1)[C@H](C)c1c(F)ccc(C)c1C [Example 35, 4-chloro-N-((1S,2R)-2-(6-fluoro-2,3-dimethylphenyl)-1-(2-methyl-2H-tetrazol-5-yl)propyl)-2-methoxybenzensulfonamide]
1 to 5 µM	50 to 100 µM	Cc1cc(S(=O)(=O)N[C@H](c2nn[nH]n2)[C@H](C)c2c(F)ccc(C)c2C)c(F)cc1Cl [Example 42]
≤ 0.1 µM	50 to 100 µM	Cc1ccc(F)c([C@@H](C)[C@H](NS(=O)(=O)c2ccc(Cl)c3c2OCC[C@@H]3O)c2nn[nH]n2)c1C [Example 10, (S)-5-chloro-N-((1S,2R)-2-(6-fluoro-2,3-dimethylphenyl)-1-(2H-tetrazol-5-yl)propyl)-4-hydroxychromane-8-sulfonamide]
0.1 to 1 µM	30 to 50 µM	Cc1ccc(F)c([C@@H](C)[C@H](NS(=O)(=O)c2ccc(Cl)cc2N2CCCCC2)c2nn[nH]n2)c1C [Example 80, 4-chloro-N-((1S,2R)-2-(6-fluoro-2,3-dimethylphenyl)-1-(2H-tetrazol-5-yl)propyl)-2-(piperidin-1-yl)benzensulfonamide]
≤ 0.1 µM	10 to 30 µM	Cc1ccc(F)c([C@@H](C)[C@H](NS(=O)(=O)c2ccc(Cl)c(C)c2Cl)c2nn[nH]n2)c1C [Example 55, 2,4-dichloro-N-((1S,2R)-2-(6-fluoro-2,3-dimethylphenyl)-1-(2H-tetrazol-5-yl)propyl)-3-methylbenzenesulfonamide]
≤ 0.1 µM	10 to 30 µM	[2H]C([2H])([2H])[C@@]1(O)CCOc2c(S(=O)(=O)N[C@H](c3nn[nH]n3)[C@H](C)c3c(F)ccc(C)c3C)ccc(Cl)c21 [Example 12, (R)-5-chloro-N-((1S,2R)-2-(6-fluoro-2,3-dimethylphenyl)-1-(2H-tetrazol-5-yl)propyl)-4-hydroxy-4-(methyl-d3)chromane-8-sulfonamide]
≤ 0.1 µM	50 to 100 µM	Cc1ccc(F)c([C@@H](C)[C@H](NS(=O)(=O)c2cc(C(C)(C)O)c(Cl)cc2C(N)=O)c2nn[nH]n2)c1C (racemic) [Example 13, rac-5-chloro-2-(N-((1R,2S)-2-(6-fluoro-2,3-dimethylphenyl)-1-(2H-tetrazol-5-yl)propyl)sulfamoyl)-4-(2-hydroxypropan-2-yl)benzamide]
0.1 to 1 µM	10 to 30 µM	COc1c(S(=O)(=O)N[C@H](c2nn[nH]n2)[C@H](C)c2c(F)ccc(C)c2C)ccc(Cl)c1F [Example 73, 4-chloro-3-fluoro-N-((1S,2R)-2-(6-fluoro-2,3-dimethylphenyl)-1-(2H-tetrazol-5-yl)propyl)-2-methoxybenzenesulfonamide]
0.1 to 1 µM	50 to 100 µM	Cc1ccc(F)c([C@@H](C)[C@H](NS(=O)(=O)c2ccc(Cl)cc2N2CCN(C)CC2)c2nn[nH]n2)c1C [Example 79, 4-chloro-N-((1S,2R)-2-(6-fluoro-2,3-dimethylphenyl)-1-(2H-tetrazol-5-yl)propyl)-2-(4-methylpiperazin-1-yl)benzenesulfonamide]
	50 to 100 µM	Cc1ccc(F)c([C@@H](C)[C@H](NS(=O)(=O)c2ccc(Cl)c([C@@H](F)C(=O)N(C)C)c2)c2nn[nH]n2)c1C [Example 66, (R)-2-(2-chloro-5-(N-((1S,2R)-2-(6-fluoro-2,3-dimethylphenyl)-1-(2H-tetrazol-5-yl)propyl)sulfamoyl)phenyl)-2-fluoro-N,N-dimethylacetamide]
1 to 5 µM		Cc1ccc(F)c(S(=O)(=O)N[C@H](c2nn[nH]n2)[C@H](C)c2c(F)ccc(C)c2C)c1 [Example 52, 2-fluoro-N-((1S,2R)-2-(6-fluoro-2,3-dimethylpehnyl)-1-(2H-tetrazol-5-yl)propyl)-5-methylbenzenesulfonamide]
0.1 to 1 µM		Cc1ccc(F)c([C@H](C)[C@H](c2nn[nH]n2)c2c(S(N)(=O)=O)ccc(Cl)c2C#N)c1C [Example 51, 4-chloro-3-cyano-2-((1S,2R)-2-(6-fluoro-2,3-dimethylphenyl)-1-(2H-tetrazol-5-yl)propyl)benzenesulfonamide]
	30 to 50 µM	C=Cc1cc(Cl)ccc1S(=O)(=O)N[C@H](c1nn[nH]n1)[C@H](C)c1c(F)ccc(C)c1C [Example 63, 4-chloro-N-((1S,2R)-2-(6-fluoro-2,3-dimethylphenyl)-1-(2H-tetrazol-5-yl)propyl)-2-vinylbenzenesulfonamide]
	50 to 100 µM	Cc1ccc(F)c([C@@H](C)[C@H](NS(=O)(=O)c2ccc(Cl)cc2NC(C)C)c2nn[nH]n2)c1C [Example 6, 4-chloro-N-((1S,2R)-2-(6-fluoro-2,3-dimethylphenyl)-1-(2H-tetrazol-5-yl)propyl)-2-(isopropylamino)benzenesulfonamide]
	10 to 30 µM	Cc1ccc(F)c([C@@H](C)[C@H](NS(=O)(=O)c2ccc(Cl)cc2Br)c2nn[nH]n2)c1C [Example 65, 2-bromo-4-chloro-N-((1S,2R)-2-(6-fluoro-2,3-dimethylphenyl)-1-(2H-tetrazol-5-yl)propyl)benzenesulfonamide]
	50 to 100 µM	Cc1ccc(F)c([C@@H](C)[C@H](NS(=O)(=O)c2ccc(Cl)c([C@H](F)C(=O)N(C)C)c2)c2nn[nH]n2)c1C [Example 67, (S)-2-(2-chloro-5-(N-((1S,2R)-2-(6-fluoro-2,3-dimethylphenyl)-1-(2H-tetrazol-5-yl)propyl)sulfamoyl)phenyl)-2-fluoro-N,N-dimethylacetamide]
	50 to 100 µM	Cc1ccc(F)c([C@@H](C)[C@H](NS(=O)(=O)c2ccc(Cl)cc2C(=O)N(C)C)c2nn[nH]n2)c1C [Example 68, 5-chloro-2-(N-((1S,2R)-2-(6-fluoro-2,3-dimethylphenyl)-1-(2H-tetrazol-5-yl)propyl)sulfamoyl)-N,N-dimethylbenzamide]
